Test results from PubChem BioAssay (NCI).
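The compound was tested at five concentrations on cells cultured in 96-well plates, with a 48-hour exposure period. GI50 marks 50% less growth. At the TGI there is no net growth.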

What was measured:
Assay in all cases: NCI-60 cell line screen, 48 h
ACHN renal = system: ACHN renal
CAKI-1 renal = system: CAKI-1 renal
HL-60(TB) leukemia = system: HL-60(TB) leukemia
IGROV1 ovarian = system: IGROV1 ovarian
M14 melanoma = system: M14 melanoma
NCI-H226 lung = system: NCI-H226 lung
NCI-H23 lung = system: NCI-H23 lung
SK-MEL-2 melanoma = system: SK-MEL-2 melanoma
SNB-75 CNS = system: SNB-75 CNS
SR leukemia = system: SR leukemia

## C=C1C(=O)O[C@H]2[C@H]1CC/C(Cn1cc(-c3cc(C)c(C)cc3C)nn1)=C\CC[C@@]1(C)O[C@@H]21
ACHN renal
  GI50: 1.07 µM
  TGI: 2.34 µM
CAKI-1 renal
  GI50: 1.08 µM
  TGI: 2.39 µM
HL-60(TB) leukemia
  GI50: 0.643 µM
  TGI: 3.69 µM
IGROV1 ovarian
  GI50: 1.29 µM
  TGI: 2.74 µM
M14 melanoma
  GI50: 1.5 µM
  TGI: 3.27 µM
NCI-H226 lung
  GI50: 1.46 µM
  TGI: 3.07 µM
NCI-H23 lung
  GI50: 1.77 µM
  TGI: 3.99 µM
SK-MEL-2 melanoma
  GI50: 1.75 µM
  TGI: 3.59 µM
SNB-75 CNS
  GI50: 0.521 µM
  TGI: 8.45 µM
SR leukemia
  GI50: 1.26 µM
  TGI: 7.8 µM

## COc1ccc2c(c1)/C(=C/c1cc(OC)c(OC)c(OC)c1)C(=O)N2C
ACHN renal
  GI50: 3.6 µM
  TGI: > 39.5 µM
CAKI-1 renal
  GI50: 2.41 µM
  TGI: > 27.4 µM
HL-60(TB) leukemia
  GI50: 1.46 µM
  TGI: 5.28 µM
IGROV1 ovarian
  GI50: 1.9 µM
  TGI: 5.31 µM
NCI-H226 lung
  GI50: 4.85 µM
  TGI: > 100 µM
NCI-H23 lung
  GI50: 4.42 µM
  TGI: > 100 µM
SK-MEL-2 melanoma
  GI50: 3.29 µM
  TGI: 7.41 µM
SNB-75 CNS
  GI50: 2.29 µM
  TGI: > 21.4 µM
SR leukemia
  GI50: 0.634 µM
  TGI: 3.28 µM

## COc1ccc(-c2cc(=O)c3c(OC)c(OC)c(OC)c(OC)c3o2)c(OC)c1
ACHN renal
  TGI: 84.8 µM
CAKI-1 renal
  TGI: 81.9 µM
HL-60(TB) leukemia
  TGI: > 100 µM
IGROV1 ovarian
  TGI: > 100 µM
M14 melanoma
  TGI: 46.7 µM
NCI-H226 lung
  TGI: > 100 µM
NCI-H23 lung
  TGI: 58.5 µM
SK-MEL-2 melanoma
  TGI: 39.2 µM
SNB-75 CNS
  TGI: > 100 µM
SR leukemia
  TGI: > 100 µM

## COc1cc2c(cc1OCCCCOc1ccc(-c3nc4ccccc4s3)cc1)N=C[C@@H]1CCCN1C2=O
ACHN renal
  GI50: 0.742 µM
  TGI: 2.59 µM
CAKI-1 renal
  GI50: 0.769 µM
  TGI: 10.8 µM
HL-60(TB) leukemia
  GI50: 0.384 µM
  TGI: 16.5 µM
IGROV1 ovarian
  GI50: 1.28 µM
  TGI: 6.08 µM
M14 melanoma
  GI50: 0.908 µM
  TGI: 2.39 µM
NCI-H226 lung
  GI50: 1.71 µM
  TGI: 3.89 µM
NCI-H23 lung
  GI50: 1.15 µM
  TGI: 3.56 µM
SK-MEL-2 melanoma
  GI50: 0.393 µM
  TGI: 1.83 µM
SNB-75 CNS
  GI50: 1.26 µM
  TGI: 2.63 µM
SR leukemia
  GI50: 0.276 µM
  TGI: 1.12 µM

## C=C1C(=O)OC2CC(C)C3C=CC(=O)C3CC12 (stereo not drawn)
ACHN renal
  TGI: 8.21 µM
CAKI-1 renal
  TGI: 5.47 µM
HL-60(TB) leukemia
  TGI: 4.95 µM
IGROV1 ovarian
  TGI: 13.2 µM
M14 melanoma
  TGI: 3.46 µM
NCI-H226 lung
  TGI: 8.21 µM
NCI-H23 lung
  TGI: 4.03 µM
SK-MEL-2 melanoma
  TGI: 4.49 µM
SNB-75 CNS
  TGI: 18.5 µM
SR leukemia
  TGI: 4.53 µM

## NC(=O)c1ccc2nc3c(n2c1)C(=O)C(=O)c1ccccc1-3
ACHN renal
  GI50: 1.34 µM
  TGI: 2.62 µM
CAKI-1 renal
  GI50: 1.67 µM
  TGI: 3.22 µM
HL-60(TB) leukemia
  GI50: 2.12 µM
  TGI: 5.18 µM
IGROV1 ovarian
  GI50: 1.63 µM
  TGI: 3.34 µM
M14 melanoma
  GI50: 0.381 µM
  TGI: 1.23 µM
NCI-H226 lung
  GI50: 1.71 µM
  TGI: 3.8 µM
NCI-H23 lung
  GI50: 0.42 µM
  TGI: 2.8 µM
SK-MEL-2 melanoma
  GI50: 0.633 µM
  TGI: 1.91 µM
SNB-75 CNS
  GI50: 1.56 µM
  TGI: 2.92 µM
SR leukemia
  GI50: 0.488 µM
  TGI: 3.86 µM

## CC1(C)CC2(C)CC1CC2NC(=O)CCN1CCOCC1 (stereo not drawn)
ACHN renal
  TGI: > 100 µM
CAKI-1 renal
  TGI: > 100 µM
HL-60(TB) leukemia
  TGI: > 100 µM
IGROV1 ovarian
  TGI: > 100 µM
M14 melanoma
  TGI: > 100 µM
NCI-H226 lung
  TGI: > 100 µM
NCI-H23 lung
  TGI: > 100 µM
SNB-75 CNS
  TGI: > 100 µM
SR leukemia
  TGI: > 100 µM

## CC1(O)CCC2(C#N)CCC1C2O (stereo not drawn)
ACHN renal
  TGI: > 100 µM
CAKI-1 renal
  TGI: > 100 µM
HL-60(TB) leukemia
  TGI: > 100 µM
IGROV1 ovarian
  TGI: > 100 µM
M14 melanoma
  TGI: > 100 µM
NCI-H226 lung
  TGI: > 100 µM
SK-MEL-2 melanoma
  TGI: > 100 µM
SNB-75 CNS
  TGI: > 100 µM
SR leukemia
  TGI: 45.4 µM

## O=C(CC1C=CCS1(=O)=O)NCc1ccccc1 (stereo not drawn)
ACHN renal
  TGI: > 100 µM
CAKI-1 renal
  TGI: > 100 µM
HL-60(TB) leukemia
  TGI: > 100 µM
IGROV1 ovarian
  TGI: > 100 µM
M14 melanoma
  TGI: > 100 µM
NCI-H226 lung
  TGI: > 100 µM
NCI-H23 lung
  TGI: > 100 µM
SNB-75 CNS
  TGI: > 100 µM
SR leukemia
  TGI: > 100 µM

## COc1ccc(/C=C/NC=O)cc1
ACHN renal
  TGI: > 100 µM
HL-60(TB) leukemia
  TGI: > 100 µM
IGROV1 ovarian
  TGI: > 100 µM
M14 melanoma
  TGI: > 100 µM
NCI-H226 lung
  TGI: > 100 µM
NCI-H23 lung
  TGI: > 100 µM
SK-MEL-2 melanoma
  TGI: > 100 µM
SNB-75 CNS
  TGI: > 100 µM
SR leukemia
  TGI: > 100 µM

## CNCCCNCCCN1C(=O)c2ccc3c4c(ccc(c24)C1=O)C(=O)N(CCCNCc1ccccc1OC)C3=O
ACHN renal
  GI50: 0.5 µM
  TGI: 3.96 µM
HL-60(TB) leukemia
  GI50: 2 µM
  TGI: 7.09 µM
IGROV1 ovarian
  GI50: 1.45 µM
  TGI: 6.04 µM
M14 melanoma
  GI50: 1.32 µM
  TGI: 2.79 µM
NCI-H226 lung
  GI50: 1.42 µM
  TGI: 4.63 µM
NCI-H23 lung
  GI50: 1.26 µM
  TGI: 4.12 µM
SK-MEL-2 melanoma
  GI50: 1.75 µM
  TGI: 3.97 µM
SNB-75 CNS
  GI50: 1.11 µM
  TGI: 2.51 µM
SR leukemia
  GI50: 0.27 µM
  TGI: 2.45 µM

## C=C1C(=O)O[C@H]2[C@H]1CC/C(COC(=O)c1ccccc1)=C\CC[C@@]1(C)O[C@@H]21
ACHN renal
  GI50: 1.37 µM
  TGI: 2.86 µM
HL-60(TB) leukemia
  GI50: 0.981 µM
  TGI: 3.95 µM
IGROV1 ovarian
  GI50: 0.787 µM
  TGI: 2.66 µM
M14 melanoma
  GI50: 1.32 µM
  TGI: 3.27 µM
NCI-H226 lung
  GI50: 1.62 µM
  TGI: 3.74 µM
NCI-H23 lung
  GI50: 1.82 µM
  TGI: 4.16 µM
SK-MEL-2 melanoma
  GI50: 1.94 µM
  TGI: 4.02 µM
SNB-75 CNS
  GI50: 5.7 µM
  TGI: 18.7 µM
SR leukemia
  GI50: 0.35 µM
  TGI: 86.8 µM

## COc1ccc(-c2csc(NC(=O)c3cc(O)c(O)c(O)c3)n2)cc1
ACHN renal
  GI50: 3.76 µM
  TGI: > 33.3 µM
CAKI-1 renal
  GI50: 2.61 µM
  TGI: > 33.3 µM
HL-60(TB) leukemia
  GI50: 8.28 µM
  TGI: 23.9 µM
IGROV1 ovarian
  GI50: 6.69 µM
  TGI: 32.6 µM
M14 melanoma
  GI50: 10.4 µM
  TGI: > 33.3 µM
NCI-H226 lung
  GI50: 9.59 µM
  TGI: > 33.3 µM
NCI-H23 lung
  GI50: 11.2 µM
  TGI: > 33.3 µM
SNB-75 CNS
  GI50: 6.32 µM
  TGI: > 33.3 µM
SR leukemia
  GI50: 1.89 µM
  TGI: > 33.3 µM
